Measurements as given in PMC12263422, “Cryo-EM structure of the human THIK-1 K2P K^+ channel reveals a lower Y gate regulated by lipids and anesthetics” (Nature Structural & Molecular Biology, 2025).
“And” between values parts separate entries of the source, which are not always exact repeats. Identical values can stand only once.

Target: T1, human K2P12.1 THIK-2 (THIK-2*) (Homo sapiens, UniProt Q9HB15, R11A/R12A/R14A/R15A/R16A)
T1 construct: expressed in transfected cells; host or cells: Xenopus oocytes (mRNA injection)
T1 sequence (Q9HB15 1-430 R11A/R12A/R14A/R15A/R16A): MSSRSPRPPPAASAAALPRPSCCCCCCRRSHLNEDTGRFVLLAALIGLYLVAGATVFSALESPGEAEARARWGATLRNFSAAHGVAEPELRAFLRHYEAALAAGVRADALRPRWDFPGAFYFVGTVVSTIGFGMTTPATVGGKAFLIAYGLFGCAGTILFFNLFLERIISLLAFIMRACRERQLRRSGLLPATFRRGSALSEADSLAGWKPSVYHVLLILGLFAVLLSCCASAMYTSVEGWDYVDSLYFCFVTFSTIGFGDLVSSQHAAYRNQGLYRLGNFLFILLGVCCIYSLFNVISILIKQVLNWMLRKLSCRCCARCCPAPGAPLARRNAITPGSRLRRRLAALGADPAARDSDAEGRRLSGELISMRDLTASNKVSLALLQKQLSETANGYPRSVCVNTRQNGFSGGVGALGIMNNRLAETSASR
Assay: Inside-out excised patch recordings, oocytes, THIK-2* (ER-retention mutant)
Assay type: cell-based
Settings: for Normalized currents: THIK-2* (unstimulated)
Description: Human K2P13.1 THIK-1 (GenBank accession number: NM_022054) and human K2P12.1 THIK-2 (NM_022055.1) were used in this study. For functional expression studies, the respective K^+ channel subtype coding sequences were subcloned into the oocyte expression vector pSGEM or the dual-purpose expression vector pFAW[41] and verified by sequencing. All mutant channels were obtained by site-directed mutagenesis and verified by sequencing. To increase surface expression and macroscopic currents, measurements of THIK-2 channels used a mutated ER retention motif, (R11A R12A R14A R15A R16A; THIK-2*)[20]. Vector DNA was linearized with NheI or MluI, and mRNA was synthesized in vitro using the SP6 or T7 AmpliCap Max High Yield Message Maker Kit (Cellscript, USA) or HiScribe T7 ARCA mRNA Kit (New England Biolabs).
Two-electrode voltage–clamp (TEVC) studies were performed in Xenopus oocytes. All animal use conformed to the Guide for the Care and Use of Laboratory Animals (NIH Publication 85–23), and all experiments using Xenopus toads were approved by the local ethics panels. Oocytes were stored at 17 °C in ND96 recording solution composed of (in mM): 96 NaCl, 2 KCl, 1.8 CaCl2, 1 MgCl2, 5 HEPES (pH 7.5 adjusted with NaOH and HCl), supplemented with Na-pyruvate (275 mg L^–1), theophylline (90 mg L^–1) and gentamicin (50 mg L^–1). Oocytes were injected with 1 ng mRNA for WT or mutant channels, and were incubated for 24–48 h at 17 °C. Two-electrode voltage clamp recordings were then performed as previously described[42],[43]. For macroscopic patch–clamp measurements, oocytes were obtained as described above incubated at 17 °C in a solution containing (mM): 54 NaCl, 30 KCl, 2.4 NaHCO3, 0.82 MgSO4 ×7 H2O, 0.41 CaCl2, 0.33 Ca(NO3)2 ×4 H2O and 7.5 TRIS (pH 7.4 adjusted with NaOH and HCl) for 1–4 days before use. Excised patch recordings in inside-out configuration conditions were performed at room temperature. Patch pipettes were made from thick-walled borosilicate glass GB 200TF-8P (Science Products), had resistances of 0.2–0.5 MΩ (tip diameter, 10–25 µm) and filled with a pipette solution (in mM): 120 KCl, 10 HEPES and 3.6 CaCl2 (pH 7.4 adjusted with KOH and HCl). Intracellular bath solutions and compounds were applied to the cytoplasmic side of excised patches for the various K^+ channels through a gravity flow multi-barrel pipette system. The intracellular solution had the following composition (in mM): 120 KCl, 10 HEPES, 2 EGTA and 1 pyrophosphate (pH adjusted with KOH and HCl). Currents were recorded with an EPC10 amplifier (HEKA Electronics) and sampled at 10 kHz or higher, with filtering set to 3 kHz (–3 dB) or higher, as appropriate for sampling rate. For measurements of GPCR activation, whole-cell currents were recorded for THIK-1 in transiently transfected HEK-293 cells. Cells were stimulated by a ramp protocol between −100 and +60 mV (holding potential, −80 mV). The pipette solution was composed of (in mM): 140 KCl, 2 MgCl2, 1 CaCl2, 2.5 EGTA and 10 HEPES (pH 7.3 adjusted with KOH and HCl). The extracellular bath solution had the following composition (in mM): 135 NaCl, 5 KCl, 2 MgCl2, 2 CaCl2, 10 glucose and 10 HEPES pH (pH 7.3 adjusted with NaOH and HCl). Oxotremorine M (Oxo-M) was added to extracellular bath solution to obtain the final concentration. Single-channel currents were recorded with an Axopatch 200B amplifier through a Digidata 1440A digitizer (Molecular Devices). Data were filtered at 2 kHz and recorded at a 200-kHz sampling rate with the program Clampex (Molecular Devices). Pipette solution and bath solution for cell-attached recordings contained (in mM): 140 KCl, 2 MgCl2, 1 CaCl2 and 10 HEPES (pH 7.4 adjusted with KOH and HCl). For inside-out recordings, the bath solution contained (in mM): 140 KCl, 2 MgCl2, 1 CaCl2 and 10 HEPES (pH 7.2 adjusted with KOH and HCl). All experiments were conducted at room temperature. […]

[1] = THIK-2* WT (unstimulated), mean
[2] = THIK-2* WT, individual recordings

CCCCC[N+](CCCCC)(CCCCC)CCCCC [TPenA, tetrapentylammonium]
Normalized currents (0.1 µM TPenA): 0.99
Normalized currents (1 µM TPenA): 0.98
Normalized currents (10 µM TPenA): 0.94
Normalized currents (100 µM TPenA): 0.71
Normalized currents (1000 µM TPenA): 0.41
Normalized currents (5000 µM TPenA): 0.35
τ of 1 mM TPenA block [1]: 3.83 s
τ of 1 mM TPenA release [1]: 3.40 s
τ of 1 mM TPenA block [2]: 5.710 s and 3.800 s and 2.660 s and 5.630 s and 4.260 s and 2.170 s and 2.560 s
τ of 1 mM TPenA release [2]: 4.580 s and 3.250 s and 3.550 s and 3.310 s and 3.680 s and 2.030 s
